Drawing on paper PMC7767381, “Exploring the Anti-Cancer Mechanism of Novel 3,4′-Substituted Diaryl Guanidinium Derivatives” (Pharmaceuticals, 2020), this text covers IC50 and melting point for three compounds.

In general, IC50 refers to the concentration that gives 50% inhibition. The term melting point denotes the temperature, or range, at which the solid turns liquid.

Series [1] concerns MCF-7 cells. The experiment in a line: alamarBlue cell viability assay, MCF-7. The series is classed as cell-based. Particulars: Homo sapiens, MCF7, 72 h, read-out: MCF-7 IC50 ± SEM. An excerpt: (§1) Cell viability and proliferation assays were used to evaluate the in vitro cytotoxicity of all synthesised compounds in a variety of different cancer cell lines using the alamarBlue® viability assay and the results are presented in Table 1 and Table 2. The sensitivity of cancer cells to drugs can often be compromised by PIK3CA, Ras and BRAF mutations. To determine whether such mutations are critical to the efficacy of our new compounds we tested them in a range of cancerous cell lines expressing different mutations. Firstly, we used the HL-60 (human promyelocytic leukaemia, NRas mutated) cell line for general cytotoxicity screening of all compounds. […] Lastly, toxicity against MCF-10A, which is a non-tumorigenic epithelial cell line, was also assessed for one of the most promising compounds (4). The graphs representing the viability results with the HL-60, MCF-7, HeLa, HCT-116, and HKH-2 cancer cell lines for compound 1 and derivatives 2, 3, and 4 are shown in Figures S7–S10 (ESI).
(§2) Cells were counted and seeded in 96-well plates at a density of 2 × 10^5 cells/mL for HL-60, 2.5 × 10^4 cells/mL for MCF-7, MCF10A and HeLa, 1 × 10^5 cells/mL for HCT116 and HKH-2, all of them in their respective media. The 96-well plates were then treated with a 1:100 dilution of stock concentrations of drugs or EtOH (1% v/v)/DMSO (0.1% v/v) as vehicle control in triplicate. Three blank wells containing 200 µL RPMI with no cells were also set-up as blanks. After a 72 h incubation, 20 µL of alamarBlue was added to each well. The plates were incubated in darkness at 37 °C for 4–5 h using a Molecular Devices microplate reader, the fluorescence (F) was then read at an excitation wavelength of 544 nm and an emission wavelength of 590 nm. Cell viability was then determined by subtracting the mean blank fluorescence (Fb) from the treated sample fluorescence (Fs) and expressing this as a percentage of the fluorescence of the blanked vehicle control (Fc). […] The results were then plotted as a nonlinear regression, sigmoidal dose-response curves on Prism, from which the IC50 value for each drug was determined.
The MCF-7 (human breast tumour) cell line was obtained from Prof. Mary Meegan, School of Pharmacy, TCD. It was maintained in Roswell Park Memorial Institute (RPMI) 1640 medium with stable glutamate (GlutaMax I) supplemented with 10% (v/v) fetal bovine serum (FBS), 1% (v/v) penicillin/ streptomycin (pen-strep) and 2 mM L-glutamine.
The HeLa (human epitheloid cervix carcinoma) cell line was obtained from Prof. Thorfinnur Gunnlaugsson, School of Chemistry TCD. It was maintainedin Dulbecco's Modified Eagle's Medium (DMEM) supplemented with 10% (v/v) fetal bovine serum (FBS) and 1%(v/v) penicillin/ streptomycin (pen-strep).
The HCT116and HKH-2 (human colon cancer cells) cell lines were obtained from Prof. James Murray, School of Biochemistry and Immunology TCD. They were maintainedin Dulbecco's Modified Eagle's Medium (DMEM) supplemented with 10% (v/v) fetal bovine serum (FBS), 1% (v/v) penicillin/ streptomycin (pen-strep), 1% (v/v) sodium pyruvate (NaPyr), 1% (v/v) L-glutamine (L-Glu) and, only for HKH-2, 0.6 mg/mL geneticine (G418).
MCF-10A (human breast epithelial) cell line was obtained from Prof. Mary Meegan, School of Pharmacy, TCD. It was cultured in Dulbecco’s Modified Eagle Medium/Nutrient Mixture F-12 (DMEM/F12; Gibco) supplemented with 5% horse serum (Invitrogen), 20 ng/mL epidermal growth factor (Merck Millipore), 0.5 μg/mL hydrocortisone (Sigma), 100 ng/mL cholera toxin (Sigma), 10 μg/mL insulin (Sigma), and penicillin/streptomycin (1% v/v) (Gibco).
(§3) 4.4. AlamarBlue ® Cell Viability Assay
Cells were counted and seeded in 96 well plates at a density of 2 × 10^5 cells/mL for HL-60, 2.5× 10^4 cells/mL for MCF-7, MCF10A and HeLa, 1 × 10^5 cells/mL for HCT116 and HKH-2, all of them in their respective media. The 96 well plates were then treated with a 1:100 dilution of stock concentrations of drugs or EtOH (1% v/v)/DMSO (0.1% v/v) as vehicle control in triplicate. […]

Series [2] deals with HL-60 cells. The experiment in a line: alamarBlue cell viability assay, HL-60. Format: cell-based. Particulars: Homo sapiens, HL-60, 72 h, alamarBlue, 72 h; read-out: HL-60 IC50 ± SEM.
Excerpt: as §1
as §2, with “determined. […]” for “determined.”
Pharmacy, TCD. It was maintained in Roswell Park Memorial Institute (RPMI) 1640 medium with stable glutamate (GlutaMax I) supplemented with 10% (v/v) fetal bovine serum (FBS), 1% (v/v) penicillin/ streptomycin (pen-strep) and 2 mM L-glutamine. […]
as §3
Cells were counted and seeded in 96 well plates at a density of 2 × 10^5 cells/mL for HL-60, 2.5× 10^4 cells/mL for MCF-7, MCF10A and HeLa, 1 × 10^5 cells/mL for HCT116 and HKH-2, all of them in their respective media. The 96 well plates were then treated with a 1:100 dilution of stock concentrations of drugs or EtOH (1% v/v)/DMSO (0.1% v/v) as vehicle control in triplicate.
Three blank wells containing 200 µL media with no cells were also set-up as blanks. After a 72 h incubation, 20 µL of AlamarBlue was added to each well. The plates were incubated in darkness at 37 °C for 4-5 h. Using a Molecular Devices microplate reader, the fluorescence (F) was then read at an excitation wavelength of 544 nm and an emission wavelength of 590 nm.
Cell viability was then determined by subtracting the mean blank fluorescence (Fb) from the treated sample fluorescence (Fs) and expressing this as a percentage of the fluorescence of the blanked vehicle control (Fc). […] The results were […]
then plotted as a nonlinear regression, sigmoidal dose-response curves on Prism, from which the IC50 value for each drug was determined.
Fs − Fb x 100 = % Cell Viability
60 cell line in a dose-dependent manner.
(1 picture or pasted object on this page, not shown here)

Regarding `Cl.N=C(N)Nc1ccc(Oc2cccc(Nc3ccc(Cl)c(C(F)(F)F)c3)c2)cn1` [Compound 4, 1-(5-(3-((4-Chloro-3-(trifluoromethyl)phenyl)amino)phenoxy)pyridin-2-yl)guanidine hydrochloride], the melting point was 89 to 91 °C. Also, the IC50 in series [1] is 3.73 ± 0.35 µM. For the same compound, the half-inhibitory concentration (IC50) in series [2] was determined as 3.48 ± 0.28 µM.

Take `Cl.Cl.N=C(N)Nc1ccc(Oc2cccc(NC(=N)Nc3ccc(Cl)c(C(F)(F)F)c3)c2)cn1` [Compound 2, 1-(4-Chloro-3-(trifluoromethyl)phenyl)-3-(3-((6-guanidinopyridin-3-yl)oxy)phenyl) guanidine dihydrochloride]: the melting point lay in the range of 169 to 171 °C. In addition, the IC50 in series [1] stood at 4.91 ± 1.04 µM. Moreover, the IC50 in series [2] was 2.36 ± 0.14 µM.

Take `Cl.N=C(N)Nc1ccc(Oc2cccc(Nc3ccc(Cl)c(C(F)(F)F)c3)c2)cc1` [Compound 3, 1-(4-(3-((4-Chloro-3-(trifluoromethyl)phenyl)amino)phenoxy)phenyl)guanidine hydrochloride]: the melting point was in the range of 58 to 60 °C. For the same compound, the half-maximal inhibitory concentration (IC50) in series [1] turned out to be 2.02 ± 0.27 µM.
